According to US20070293491A1, “INDAZOLE COMPOUNDS AND METHODS FOR INHIBITION OF CDC7” (NOVARTIS VACCINES AND DIAGNOSTICS, INC., priority 2006, published 2007):

What follows are molecules tested against cdc7/dbf4 (Homo sapiens, UniProt O00311) (assay: In vitro assay of CDC7/DBF4 inhibition (phosphoserine 108-MCM-2 detection, donor/acceptor beads)). Details: Test Concentration 0.93 μM; 0.5 μM ATP solution, MCM-2 substrate, 1 hr room temperature.
Format: biochemical
Description: A 20.5 μL kinase reaction was performed on OptiPlate-384 plates PerkinElmer, 6007290) as follows by sequential addition of: 0.5 μL of test compounds of the invention in DMSO, 10 μL 0.5 μM ATP in reaction buffer, 10 μL 2.2 nM cdc7/dbf4 baculovirus derived), 4.4 nM MCM-2 in a reaction buffer. The reaction proceeded for 1 hr at room temperature on an orbital shaker. The reaction was terminated by addition of 10 μL detection buffer containing Streptavidin-coated donor beads and Protein A conjugated acceptor beads (54 μg/ml), and 1:4000 diluted rabbit antibody against phosphoserine 108-MCM-2 (Bethyl Labs). The mixture was incubated at room temperature for 4 hrs in the dark. The plate was then read on a PerkinElmer Fusion instrument. The reaction buffer contained 50 mM Hepes (pH 7.2-7.5), 10 mM MgCl2, 1 mM dithiothreitol (DTT), leupeptin (10 μg/ml), and bovine serum albumin (BSA) (0.2 mg/ml). The detection buffer contained 25 mM Tris (pH 7.5), 400 mM NaCl, 100mM EDTA, 0.3% BSA, and 0.05% Tween 20.
Representative compounds of the invention which inhibited the kinase reaction >70% in the above cdc7/db4 assay were selected for further analysis and confirmation. Test compounds were diluted in DMSO to a concentration of 0.93 μM or 1.39 μM and 0.5 μL of each test solution was added to wells for assay using the assay conditions and methods as described above.

Chain of cdc7/dbf4 (O00311 whole entry): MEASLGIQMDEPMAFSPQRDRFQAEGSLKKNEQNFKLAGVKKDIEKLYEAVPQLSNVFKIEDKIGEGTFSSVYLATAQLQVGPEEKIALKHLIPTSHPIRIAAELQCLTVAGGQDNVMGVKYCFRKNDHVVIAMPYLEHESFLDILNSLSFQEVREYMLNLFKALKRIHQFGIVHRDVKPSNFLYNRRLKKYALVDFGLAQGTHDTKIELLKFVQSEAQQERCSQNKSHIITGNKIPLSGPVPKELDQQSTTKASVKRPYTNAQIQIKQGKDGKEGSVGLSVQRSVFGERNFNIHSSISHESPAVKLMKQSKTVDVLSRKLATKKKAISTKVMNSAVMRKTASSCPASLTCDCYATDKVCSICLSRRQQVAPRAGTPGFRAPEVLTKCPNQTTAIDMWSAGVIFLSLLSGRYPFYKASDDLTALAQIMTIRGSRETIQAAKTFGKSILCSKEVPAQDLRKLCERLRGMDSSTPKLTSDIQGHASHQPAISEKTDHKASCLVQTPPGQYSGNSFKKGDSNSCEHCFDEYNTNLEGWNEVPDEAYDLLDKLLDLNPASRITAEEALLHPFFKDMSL
Chain of cdc7/dbf4 (Q9UBU7 whole entry partner): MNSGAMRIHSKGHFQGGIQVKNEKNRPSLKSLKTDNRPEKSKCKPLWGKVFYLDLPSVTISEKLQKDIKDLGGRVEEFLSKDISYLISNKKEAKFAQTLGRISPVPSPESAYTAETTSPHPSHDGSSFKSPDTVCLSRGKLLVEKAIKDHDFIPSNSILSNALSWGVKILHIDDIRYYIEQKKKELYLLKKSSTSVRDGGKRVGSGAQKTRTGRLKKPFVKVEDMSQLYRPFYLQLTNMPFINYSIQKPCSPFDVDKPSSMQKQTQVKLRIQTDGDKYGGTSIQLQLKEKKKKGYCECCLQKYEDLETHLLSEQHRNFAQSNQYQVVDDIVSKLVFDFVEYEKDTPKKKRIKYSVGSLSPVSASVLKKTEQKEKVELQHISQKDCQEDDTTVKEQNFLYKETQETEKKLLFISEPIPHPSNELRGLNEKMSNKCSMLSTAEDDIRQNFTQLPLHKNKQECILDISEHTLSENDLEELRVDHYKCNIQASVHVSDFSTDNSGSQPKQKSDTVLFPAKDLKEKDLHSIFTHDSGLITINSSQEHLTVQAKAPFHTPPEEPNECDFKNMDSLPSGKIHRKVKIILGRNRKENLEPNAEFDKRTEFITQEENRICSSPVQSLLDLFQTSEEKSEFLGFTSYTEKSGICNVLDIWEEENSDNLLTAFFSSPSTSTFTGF

| inhibition at 0.93 µM (stock) [%] | SMILES |
| --- | --- |
| 82 | O=c1nc(-c2ccc3[nH]ncc3c2)cc(-c2cccc(F)c2)[nH]1 [Example 2, 6-(3-fluorophenyl)-4-(1H-indazol-5-yl)pyrimidin-2(1H)-one] |
| 75 | COc1ccc(-c2cc(-c3ccc4[nH]ncc4c3)nc(=O)[nH]2)cc1F [Example 5, 6-(3-fluoro-4-methoxyphenyl)-4-(1H-indazol-5-yl)pyrimidin-2(1H)-one] |
| 83 | CCc1ccc(-c2cc(-c3ccc4[nH]ncc4c3)nc(=O)[nH]2)cc1 [Example 6, 6-(4-ethylphenyl)-4-(1H-indazol-5-yl)pyrimidin-2(1H)-one] |
| 87 | O=c1nc(-c2ccc3[nH]ncc3c2)cc(-c2ccccc2F)[nH]1 [Example 9, 6-(2-fluorophenyl)-4-(1H-indazol-5-yl)pyrimidin-2(1H)-one] |
| 98 | O=c1nc(-c2ccc3[nH]ncc3c2)cc(-c2cccc(Cl)c2)[nH]1 [Example 10, 6-(3-chlorophenyl)-4-(1H-indazol-5-yl)pyrimidin-2(1H)-one] |
| 58 | O=c1nc(-c2ccc3[nH]ncc3c2)cc(-c2ccc(OCc3ccccc3)cc2)[nH]1 [Example 15, 6-[4-(benzyloxy)phenyl]-4-(1H-indazol-5-yl)pyrimidin-2(1H)-one] |

The remaining lines, values behind:

| SMILES | inhibition at 0.93 µM (stock) [%] |
| --- | --- |
| COc1ccc(-c2cc(-c3ccc4[nH]ncc4c3)nc(=O)[nH]2)c(F)c1 [Example 3, 6-(2-fluoro-4-methoxyphenyl)-4-(1H-indazol-5-yl)pyrimidin-2(1H)-one] | 81 |
| COc1ccc(OC)c(-c2cc(-c3ccc4[nH]ncc4c3)nc(=O)[nH]2)c1 [Example 4, 6-(2,5-dimethoxyphenyl)-4-(1H-indazol-5-yl)pyrimidin-2(1H)-one] | 94 |
| COc1ccc(-c2cc(-c3ccc4[nH]ncc4c3)nc(=O)[nH]2)cc1OC [Example 7, 6-(3,4-dimethoxyphenyl)-4-(1H-indazol-5-yl)pyrimidin-2(1H)-one] | 62 |
| O=c1nc(-c2ccc3[nH]ncc3c2)cc(-c2cccc(C(F)(F)F)c2)[nH]1 [Example 8, 4-(1H-indazol-5-yl)-6-[3-(trifluoromethyl)phenyl]pyrimidin-2(1H)-one] | 55 |
| O=c1nc(-c2ccc3[nH]ncc3c2)cc(-c2ccc(N3CCNCC3)cc2)[nH]1 [Example 16, 4-(1H-indazol-5-yl)-6-(4-piperazin-1-ylphenyl)pyrimidin-2(1H)-one] | 94 |

Same assay, conditions: Test Concentration 1.39 μM; 0.5 μM ATP solution, MCM-2 substrate, 1 hr room temperature

| inhibition at 1.39 µM (stock) [%] | SMILES |
| --- | --- |
| 98 | O=c1nc(-c2ccc3[nH]ncc3c2)cc(-c2ccccc2)[nH]1 [Example 11, 4-(1H-indazol-5-yl)-6-phenylpyrimidin-2(1H)-one] |
| 98 | O=c1nc(-c2ccc3[nH]ncc3c2)cc(-c2cccc(OCc3ccccc3)c2)[nH]1 [Example 12, 6-[3-(benzyloxy)phenyl]-4-(1H-indazol-5-yl)pyrimidin-2(1H)-one] |
| 92 | O=c1nc(-c2ccc3[nH]ncc3c2)cc(-c2ccc(N3CCOCC3)cc2)[nH]1 [Example 13, 4-(1H-indazol-5-yl)-6-(4-morpholin-4-ylphenyl)pyrimidin-2(1H)-one] |
| 84 | O=c1nc(-c2ccc3[nH]ncc3c2)cc(-c2ccc(Oc3ccccc3)cc2)[nH]1 [Example 14, 4-(1H-indazol-5-yl)-6-(4-phenoxyphenyl)pyrimidin-2(1H)-one] |
